Results reported in US8039482B2, “Composition of solifenacin or salt thereof for use in solid formulation” (Astellas Pharma Inc., priority 2004, dated 2011).
Read-outs that look alike come from different tables or passages of the source.

What was measured:
[1] = type: physicochemical; conditions: for related substances (individual maximum values): 40° C. and 75% RH
Method: The amounts of degradation products over time under storage were measured by high-performance liquid chromatography. The maximum amount of the individual degradation products is shown. […] Therefore, the main cause of the degradation of the active pharmaceutical ingredient over time was presumably amorphous solifenacin succinate generated in the manufacturing process of the formulation.
Results of the stability of crystalline product and amorphous product of solifenacin succinate • Storage conditions: 40° C. and 75% RH • Packaging form: glass vial • Test items: related substances (individual maximum values)

[2] = molecular target: muscarine M3 receptors (Homo sapiens, UniProt P20309); conditions: reported in patent reference 1; cited from earlier work
Sequence of muscarine M3 receptors (P20309 whole entry): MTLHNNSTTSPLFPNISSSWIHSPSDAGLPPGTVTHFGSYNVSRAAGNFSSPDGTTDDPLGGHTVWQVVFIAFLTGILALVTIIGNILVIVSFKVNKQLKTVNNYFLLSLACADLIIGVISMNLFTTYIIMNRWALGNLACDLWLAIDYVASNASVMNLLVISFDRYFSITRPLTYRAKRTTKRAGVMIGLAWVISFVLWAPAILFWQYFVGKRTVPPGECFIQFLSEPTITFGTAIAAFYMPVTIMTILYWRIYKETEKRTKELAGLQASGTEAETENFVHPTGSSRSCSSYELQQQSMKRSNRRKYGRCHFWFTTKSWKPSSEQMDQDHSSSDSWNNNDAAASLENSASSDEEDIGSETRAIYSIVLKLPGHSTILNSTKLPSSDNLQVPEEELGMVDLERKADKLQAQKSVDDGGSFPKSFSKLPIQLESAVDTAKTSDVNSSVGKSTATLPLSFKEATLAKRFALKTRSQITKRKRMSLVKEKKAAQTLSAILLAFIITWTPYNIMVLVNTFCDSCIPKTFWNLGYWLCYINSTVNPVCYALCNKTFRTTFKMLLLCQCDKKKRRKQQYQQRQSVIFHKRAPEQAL

related substances (individual maximum values) ([1]; Open glass vial, one-week later) | related substances (individual maximum values) ([1]; Open glass vial, two-week later) | related substances (individual maximum values) ([1]; Sealed glass vial, one-week later) | related substances (individual maximum values) ([1]; Sealed glass vial, two-week later) | Compound | stability under storage (in words) [1] | antagonistic action against muscarine M3 receptors (in words) [2]
0.16% | 0.16% | 0.03% | 0.05% | O=C(O[C@H]1CN2CCC1CC2)N1CCc2ccccc2[C@@H]1c1ccccc1 [Amorphous product, solifenacin succinate] | poorer than that of the crystalline product | –
– | – | – | – | O=C(O[C@H]1CN2CCC1CC2)N1CCc2ccccc2[C@@H]1c1ccccc1 [solifenacin, (1R,3′R)-3′-quinuclidinyl 1-phenyl-1,2,3,4-tetrahydro-2-isoquinoline carboxylate] | – | excellent selective antagonistic action
